Where “and” joins values, the source holds several entries; their conditions need not be identical. Identical values can stand only once.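 1) Cells in 96-well plates. 2) Compound, 48 h, 5 concentrations. 3) Linear interpolation between surrounding doses. 4) Unreached endpoint = highest concentration. GI50: concentration for 50% inhibition of growth. TGI marks complete inhibition of growth.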

One assay concerns A498 renal. The assay is described as follows: NCI tumour cell line growth inhibition, 48 h.
As for `Cc1ccn2c3c(c(C(=O)O)c2c1)C(=O)c1ccccc1C3=O`, the GI50 is 5.01 µM and the TGI is 40.5 µM.
For `COc1cc2ncn(-c3cc(OCc4ccccc4Cl)c(C(N)=O)s3)c2cc1OC`, the GI50 is 0.117 µM and the TGI is 3.21 µM.
For `Cc1ccc2c(C(C[N+](=O)[O-])c3cccs3)c(-c3ccccc3)[nH]c2c1` (centres undefined) the same measures were 1.05 µM and 4.34 µM.
For `N/C(CC(=O)Nc1cc(C(F)(F)F)ccc1Cl)=N\O`, the TGI is > 100 µM.
`CC(CO)(CO)N=Cc1cc(I)cc(I)c1O` had a TGI of 65.4 µM.
`CCN1CCN(c2nc(NCCCNc3ccnc4cc(Cl)ccc34)c3ccccc3n2)CC1`: the GI50 is 11.3 µM and the TGI stood at 23.5 µM.
For `CC1(C)N=C(N)N=C(N)N1c1ccc(CCCCc2ccc(S(=O)(=O)F)cc2)cc1` the same measures were 3.81 µM and 87.6 µM.
For `NC(N)=N/N=C(/c1ccccc1)c1ccc(F)cc1` the same measures were 0.299 µM and 3.28 µM.
For `COc1cc(C(=O)NC2c3ccccc3-c3ccccc32)c(N)cc1OCc1ccccc1` the same measures were 37 µM and > 100 µM.
Turning to `COc1ccc(C(=S)N2CCN(c3cccc(Cl)c3)CC2)cc1`, the GI50 is > 100 µM and the TGI was > 100 µM.
`Clc1ccccc1C(c1ccccc1)(c1ccccc1)n1ccnc1`: the GI50 is 2.15 µM; the TGI was 6.02 µM and 43.8 µM.
As to `CCCCCCCCCCCCCC(=S)NCCCC[C@H](NC(=O)OCc1ccccc1)C(=O)Nc1ccccc1`, the GI50 was 3.75 µM and the TGI was > 100 µM.
For `COc1ccc(C(=O)Nc2ncc(Cc3ccc(Cl)cc3)s2)cc1` the same measures were 0.0216 µM and 0.0848 µM.
For `CC(C)(C)c1cc(O)c(O)c(C(C)(C)C)c1` the same measures were 6.19 µM and 19.8 µM.
Take `CN1CCN(CC#Cc2cccc(C(=O)c3cnn(-c4ccc(F)cc4)c3N)c2)CC1`: the GI50 was > 25 µM and the TGI is > 25 µM.
As to `COc1cccc(/C=C/C(=O)c2cc3c(N)c(C(=O)Nc4ccccc4C)sc3nc2C)c1`, the GI50 is 0.989 µM and the TGI was found to be 4.4 µM.

The subject of a further assay is HT29 colon. The assay is described as follows: NCI tumour cell line growth inhibition, 48 h.
With `Cc1ccn2c3c(c(C(=O)O)c2c1)C(=O)c1ccccc1C3=O`, the GI50 is 4.61 µM and the TGI is > 100 µM.
For `COc1cc2ncn(-c3cc(OCc4ccccc4Cl)c(C(N)=O)s3)c2cc1OC` the same measures were 0.0921 µM and > 25 µM.
On to `Cc1ccc2c(C(C[N+](=O)[O-])c3cccs3)c(-c3ccccc3)[nH]c2c1` (centres undefined), for which the GI50 is 1.3 µM and the TGI was 6.54 µM.
`N/C(CC(=O)Nc1cc(C(F)(F)F)ccc1Cl)=N\O`: the TGI is > 100 µM.
As to `CC(CO)(CO)N=Cc1cc(I)cc(I)c1O`, the TGI is 44.6 µM.
In the case of `CCN1CCN(c2nc(NCCCNc3ccnc4cc(Cl)ccc34)c3ccccc3n2)CC1`, the GI50 was 2.6 µM and the TGI is 7.22 µM.
`CC1(C)N=C(N)N=C(N)N1c1ccc(CCCCc2ccc(S(=O)(=O)F)cc2)cc1`: the GI50 is 0.4 µM and the TGI came to 21.3 µM.
As to `NC(N)=N/N=C(/c1ccccc1)c1ccc(F)cc1`, the GI50 is 0.3 µM and the TGI was 2.63 µM.
For `COc1cc(C(=O)NC2c3ccccc3-c3ccccc32)c(N)cc1OCc1ccccc1` the same measures were 69.7 µM and > 100 µM.
In the same order, the values of `COc1ccc(C(=S)N2CCN(c3cccc(Cl)c3)CC2)cc1` are > 100 µM and > 100 µM.
As to `Clc1ccccc1C(c1ccccc1)(c1ccccc1)n1ccnc1`, the GI50 was 2.24 µM; the TGI was 7.1 µM and 28 µM.
Regarding `CCCCCCCCCCCCCC(=S)NCCCC[C@H](NC(=O)OCc1ccccc1)C(=O)Nc1ccccc1`, the GI50 is 5.25 µM and the TGI is > 100 µM.
Consider `COc1ccc(C(=O)Nc2ncc(Cc3ccc(Cl)cc3)s2)cc1`, for which the GI50 was 0.0396 µM and the TGI is > 100 µM.
For `CC(C)(C)c1cc(O)c(O)c(C(C)(C)C)c1` the same measures were 2.9 µM and 6.71 µM.
In the same order, the values of `CN1CCN(CC#Cc2cccc(C(=O)c3cnn(-c4ccc(F)cc4)c3N)c2)CC1` are > 19.3 µM and > 25 µM.
In the same order, the values of `COc1cccc(/C=C/C(=O)c2cc3c(N)c(C(=O)Nc4ccccc4C)sc3nc2C)c1` are 1.11 µM and 2.58 µM.

The test system of the next assay is K-562 leukemia. The assay is described as follows: NCI tumour cell line growth inhibition, 48 h.
On to `Cc1ccn2c3c(c(C(=O)O)c2c1)C(=O)c1ccccc1C3=O`, for which the GI50 is > 100 µM and the TGI was > 100 µM.
Consider `COc1cc2ncn(-c3cc(OCc4ccccc4Cl)c(C(N)=O)s3)c2cc1OC`, for which the GI50 is 0.114 µM and the TGI is > 25 µM.
For `Cc1ccc2c(C(C[N+](=O)[O-])c3cccs3)c(-c3ccccc3)[nH]c2c1` (centres undefined) the same measures were 1.16 µM and > 33.3 µM.
With `N/C(CC(=O)Nc1cc(C(F)(F)F)ccc1Cl)=N\O`, the TGI is > 100 µM.
On the same count and under the same terms, to `CC(CO)(CO)N=Cc1cc(I)cc(I)c1O` belongs 83.5 µM.
In the case of `CCN1CCN(c2nc(NCCCNc3ccnc4cc(Cl)ccc34)c3ccccc3n2)CC1`, the GI50 is 2.23 µM and the TGI stood at 7.14 µM.
In the same order, the values of `CC1(C)N=C(N)N=C(N)N1c1ccc(CCCCc2ccc(S(=O)(=O)F)cc2)cc1` are 0.472 µM and 28.8 µM.
In the case of `NC(N)=N/N=C(/c1ccccc1)c1ccc(F)cc1`, the GI50 was 0.38 µM and the TGI amounted to 27.7 µM.
In the same order, the values of `COc1cc(C(=O)NC2c3ccccc3-c3ccccc32)c(N)cc1OCc1ccccc1` are 15.9 µM and > 100 µM.
Consider `COc1ccc(C(=S)N2CCN(c3cccc(Cl)c3)CC2)cc1`, for which the GI50 is 72.8 µM and the TGI was > 100 µM.
`Clc1ccccc1C(c1ccccc1)(c1ccccc1)n1ccnc1`: the TGI was > 42.1 µM.
In the case of `CCCCCCCCCCCCCC(=S)NCCCC[C@H](NC(=O)OCc1ccccc1)C(=O)Nc1ccccc1`, the GI50 was 4.21 µM and the TGI is > 100 µM.
In the same order, the values of `COc1ccc(C(=O)Nc2ncc(Cc3ccc(Cl)cc3)s2)cc1` are 0.041 µM and > 100 µM.
In the case of `CC(C)(C)c1cc(O)c(O)c(C(C)(C)C)c1`, the GI50 was 2.47 µM and the TGI is 7.44 µM.
In the same order, the values of `CN1CCN(CC#Cc2cccc(C(=O)c3cnn(-c4ccc(F)cc4)c3N)c2)CC1` are > 25 µM and > 25 µM.
As for `COc1cccc(/C=C/C(=O)c2cc3c(N)c(C(=O)Nc4ccccc4C)sc3nc2C)c1`, the GI50 is 1.42 µM and the TGI was > 50 µM.

For a further assay, the system named is LOX IMVI melanoma. The assay is described as follows: NCI tumour cell line growth inhibition, 48 h.
As to `Cc1ccn2c3c(c(C(=O)O)c2c1)C(=O)c1ccccc1C3=O`, the GI50 is 4.36 µM and the TGI is > 100 µM.
In the same order, the values of `COc1cc2ncn(-c3cc(OCc4ccccc4Cl)c(C(N)=O)s3)c2cc1OC` are 0.169 µM and > 25 µM.
For `Cc1ccc2c(C(C[N+](=O)[O-])c3cccs3)c(-c3ccccc3)[nH]c2c1` (centres undefined) the same measures were 1.78 µM and 6.05 µM.
As for `N/C(CC(=O)Nc1cc(C(F)(F)F)ccc1Cl)=N\O`, the TGI was > 100 µM.
Still for that read-out and setting: to `CC(CO)(CO)N=Cc1cc(I)cc(I)c1O` belongs 24.2 µM.
Consider `CCN1CCN(c2nc(NCCCNc3ccnc4cc(Cl)ccc34)c3ccccc3n2)CC1`, for which the GI50 is 1.61 µM and the TGI was 3.13 µM.
For `CC1(C)N=C(N)N=C(N)N1c1ccc(CCCCc2ccc(S(=O)(=O)F)cc2)cc1` the same measures were 0.488 µM and 15 µM.
For `NC(N)=N/N=C(/c1ccccc1)c1ccc(F)cc1` the same measures were 0.513 µM and 10.7 µM.
In the same order, the values of `COc1cc(C(=O)NC2c3ccccc3-c3ccccc32)c(N)cc1OCc1ccccc1` are 63.6 µM and > 100 µM.
Regarding `COc1ccc(C(=S)N2CCN(c3cccc(Cl)c3)CC2)cc1`, the GI50 is > 100 µM and the TGI was > 100 µM.
As for `Clc1ccccc1C(c1ccccc1)(c1ccccc1)n1ccnc1`, the GI50 was 1.69 µM and the TGI is 4.66 µM.
Regarding `CCCCCCCCCCCCCC(=S)NCCCC[C@H](NC(=O)OCc1ccccc1)C(=O)Nc1ccccc1`, the GI50 was 5.3 µM and the TGI is > 100 µM.
Take `COc1ccc(C(=O)Nc2ncc(Cc3ccc(Cl)cc3)s2)cc1`: the GI50 is 0.0628 µM and the TGI was > 100 µM.
For the molecule `CC(C)(C)c1cc(O)c(O)c(C(C)(C)C)c1`, the GI50 is 3.05 µM and the TGI was found to be 12.9 µM.
In the same order, the values of `CN1CCN(CC#Cc2cccc(C(=O)c3cnn(-c4ccc(F)cc4)c3N)c2)CC1` are > 25 µM and > 25 µM.
For `COc1cccc(/C=C/C(=O)c2cc3c(N)c(C(=O)Nc4ccccc4C)sc3nc2C)c1` the same measures were 0.875 µM and 1.59 µM.

In the next assay the test system is NCI-H23 lung. The assay can be described thus: NCI tumour cell line growth inhibition, 48 h.
In the case of `Cc1ccn2c3c(c(C(=O)O)c2c1)C(=O)c1ccccc1C3=O`, the GI50 is 1.74 µM and the TGI was 5.88 µM.
For `COc1cc2ncn(-c3cc(OCc4ccccc4Cl)c(C(N)=O)s3)c2cc1OC` the same measures were 0.202 µM and 4.68 µM.
As for `Cc1ccc2c(C(C[N+](=O)[O-])c3cccs3)c(-c3ccccc3)[nH]c2c1` (centres undefined), the GI50 is 1.88 µM and the TGI was 8.18 µM.
Turning to `N/C(CC(=O)Nc1cc(C(F)(F)F)ccc1Cl)=N\O`, the TGI is > 100 µM.
`CC(CO)(CO)N=Cc1cc(I)cc(I)c1O` displayed a TGI of 58.7 µM.
`CCN1CCN(c2nc(NCCCNc3ccnc4cc(Cl)ccc34)c3ccccc3n2)CC1`: the GI50 is 4.29 µM and the TGI came to 16.9 µM.
As to `CC1(C)N=C(N)N=C(N)N1c1ccc(CCCCc2ccc(S(=O)(=O)F)cc2)cc1`, the GI50 was 2.6 µM and the TGI came out at 24.8 µM.
For `NC(N)=N/N=C(/c1ccccc1)c1ccc(F)cc1` the same measures were 0.403 µM and 8.94 µM.
For `COc1cc(C(=O)NC2c3ccccc3-c3ccccc32)c(N)cc1OCc1ccccc1`, the GI50 is 30.6 µM and the TGI is > 100 µM.
In the same order, the values of `COc1ccc(C(=S)N2CCN(c3cccc(Cl)c3)CC2)cc1` are > 100 µM and > 100 µM.
As for `Clc1ccccc1C(c1ccccc1)(c1ccccc1)n1ccnc1`, the GI50 is 2.88 µM; the TGI was 13.1 µM and 26.3 µM.
With `CCCCCCCCCCCCCC(=S)NCCCC[C@H](NC(=O)OCc1ccccc1)C(=O)Nc1ccccc1`, the GI50 is 4.14 µM and the TGI is > 100 µM.
In the same order, the values of `COc1ccc(C(=O)Nc2ncc(Cc3ccc(Cl)cc3)s2)cc1` are 0.239 µM and > 100 µM.
Turning to `CC(C)(C)c1cc(O)c(O)c(C(C)(C)C)c1`, the GI50 is 3.64 µM and the TGI stood at 14.2 µM.
In the same order, the values of `CN1CCN(CC#Cc2cccc(C(=O)c3cnn(-c4ccc(F)cc4)c3N)c2)CC1` are > 25 µM and > 25 µM.
In the case of `COc1cccc(/C=C/C(=O)c2cc3c(N)c(C(=O)Nc4ccccc4C)sc3nc2C)c1`, the GI50 is 1.76 µM and the TGI worked out at 8.93 µM.

The values are drawn from PubChem BioAssay (NCI).
